Reference: publication PMC6272662, “Trypanocidal Activity of Long Chain Diamines and Aminoalcohols” (Molecules, 2015)
Read-outs that look alike come from different tables or passages of the source.

Legend:
Chagas disease = system: Chagas disease; design: method as in PMID 22614520, PMID 22760123, PMID 22686518, PMID 19967227; details: ref [6],[7],[8],[9], cited from earlier work
in vitro = details: mouse
Protocol: (§1) The mouse cell lines J774.2 macrophages and NCTC clone 929 fibroblasts were used and cultured in plastic culture flasks. J774.2 and NCTC-929 cells were grown using DMEM and BME without phenol-red, respectively. Both media were supplemented with 10% heat inactivated fetal calf serum, 2 mM glutamine, 100 U/mL penicillin and 100 μg/mL streptomycin. Cell cultures were maintained at 37 °C in a humidified atmosphere containing 5% CO2 and subpassaged once a week. Cells in the pre-confluence phase were harvested with an EDTA-trypsin solution for the experiments.
(§2) Unspecific cytotoxicity was evaluated over phagocytic macrophages J774.2 cell line. To study cytotoxicity on J774.2 cells, 200 μL of a suspension of 2 × 10^5 macrophages/mL were added to 96 well flat-bottom microplates (Sigma). Cells were allowed to attach for 24 h at 37 °C and then exposed to the compounds for 72 h at the same concentrations as used for drug screening. […] Each concentration was assayed by triplicate, in independent experiments. Cytotoxicity was assessed by the Trypan Blue and XTT techniques and LC50 was calculated as described above.

[1] = system: Trypanosoma cruzi epimastigotes strain JEM (MHOM/CO/05/JEM); experiment: Epimastigote susceptibility assay, JEM strain (Trypan Blue and XTT); type: cell-based; details: for JEM Strain SI (Selectivity Index: LC50-macrophages/IC50-epimastigotes): JEM strain epimastigotes vs J774.2 macrophages; for IC50 / JEM Strain PNFX (potency relative to NFX = IC50-NFX/IC50-compound; also called NI): epimastigotes, JEM strain; for IC50: 72 h at 28 °C, 0.1-70.0 µM, mean ± SEM
Protocol: (§3) For in vitro studies, the strains MHOM/CO/04/MG (MG), MHOM/CO/05/JEM (JEM) and CL Brener strain clone B5 (CL-B5) were used. The MG and JEM strains correspond to Group I and Haplotype Ia isolates from two Colombian patients in the acute phase, and CL-B5 is a strain stably transfected with Escherichia coli β-galactosidase gene (lacZ). Epimastigotes were grown in plastic culture flasks at 28 °C, in axenic liver-infusion tryptose (LIT) growth medium, supplemented with 10% heat inactivated (30 min at 56 °C) foetal calf serum (FCS; Sigma), […] hemin (Sigma), and 10 µg/mL gentamycin (Sigma) and harvested in the exponential phase for conducting the experiments. Cultures were continuously maintained in logarithmic growth by weekly passages.
(§4) Three different strains of T. cruzi were used for the primary screening on epimastigote forms. For strains MG and JEM, the screening assay was performed with approximately 1 × 10^5 epimastigotes in logaritmic growth phase in 200 μL of supplemented LIT medium per well in 96-well flat bottoned plates (Costar, Corning, Cornig, NY, USA). […] The plates were incubated for 72 h at 28 °C and all experimental conditions were evaluated in triplicate in three independent experiments. The epimastigote growth inhibition was microscopically determined by the Trypan Blue dye exclusion assay and XTT (2,3-bis-(2-methoxy-4-nitro-5-sulfophenyl)-5-[(phenylamino)carbonyl]-2H-tetrazolium hydroxide). Regarding the first method, an aliquot from every culture was suspended in 0.4% trypan blue solution for 5 min and cell viability was determined under microscope by counting live parasites in each condition in a Neubauer chamber. Anti-epimastigote activity percentage was calculated as (Parasite counts in control wells-Parasite counts in experimental wells) × 100/Parasite counts in control wells. Trypanocidal activity over both strains was also measured adding 50 μL of XTT solution per well to obtain a final concentration of 0.3 mg/mL. The plate was re-incubated 24 h in the dark at 37 °C and orange formazan solution formed, was spectrophotometrically quantified at 450 nm with a 630 nm reference filter, using an Ear400FT ELISA reader.
(§5) Furthermore the Selectivity Index (SI = mammalian cell LC50/epimastigote IC50) for each compound was calculated to compare the antiprotozoal activity with its respective mammalian cell cytotoxicity.

[2] = system: Trypanosoma cruzi epimastigotes strain MG (MHOM/CO/04/MG); experiment: Epimastigote susceptibility assay, MG strain (Trypan Blue and XTT); type: cell-based; details: for MG Strain SI (Selectivity Index: LC50-macrophages/IC50-epimastigotes): MG strain epimastigotes vs J774.2 macrophages; for IC50 / MG Strain PNFX (potency relative to NFX = IC50-NFX/IC50-compound; also called NI): MG strain; for IC50: 72 h at 28 °C, 0.1-70.0 µM, mean ± SEM
Protocol: as §3, §4, §5

J774.2 macrophages = experiment: in vitro; details: macrophages LC50 relative to NFX
Protocol: as §1, §2

[3] = system: Trypanosoma cruzi epimastigotes CL Brener strain clone B5 (CL-B5); experiment: Epimastigote susceptibility assay, CL-B5 clone (β-galactosidase activity, CPRG); type: cell-based; details: Trypanosoma cruzi; epimastigotes, CL-B5 clone, 72 h at 28 °C, β-galactosidase readout, mean ± SEM
Protocol: as §3
Trypanocidal activity against CL-B5 strain was also assessed by measuring β-galactosidase activity. Briefly, log-phase epimastigotes were seeded in 96-well microplates at a density of 2.5 × 10^5 parasites/mL in a final volume of 200 μL/well and incubated within the compounds for 72 h at 28 °C. Afterwards, 50 μL of the β-galactosidase substrate chlorophenol red β-D-galactopyranoside (CPRG, Roche) in 0.9% Triton X-100 (Panreac) solution were added to each well (200 μM, pH 7.4) and the plates incubated at 37 °C for 3 h. Anti-epimastigote activity was estimated by reading absorbance at 595 nm. Each concentration was assayed by triplicate, in three independent experiments. […] In all spectrophotometric assays, anti-epimastigote activity percentages were calculated as (OD control wells − OD experimental wells) ×100/OD control wells.
as §5

[4] = system: Trypanosoma cruzi amastigotes CL-B5 clone; experiment: Amastigote susceptibility assay, CL-B5 clone in NCTC-929 fibroblasts (CPRG); type: cell-based; details: Trypanosoma cruzi, NCTC929, 168 h; intracellular amastigotes in NCTC-929 fibroblasts, 7 days, mean ± SEM
Protocol: For the anti-amastigote assays, axenic cultures of epimastigotes reaching their stationary phase of growth (14 day-old cultures) were used to infect non-confluent monolayers of NCTC-929 fibroblasts to obtain tissue culture derived trypomastigotes (TCT). After 24 h at 33 °C in a humidified 5% CO2 atmosphere, the infected cultures were washed with phosphate buffer saline (PBS) to removed non-penetrated epimastigotes. TCT were harvested from the supernatant of the cultures after one week of incubation in these conditions of temperature and humidity.
For this assay, 120 μL of BME containing 10,000 NCTC-929 fibroblasts/well were seeded in 48-well plates (Costar) and after their attachment, infected with TCT obtained as above in a 1:6 cell-parasite ratio. The plates were incubated at 33 °C and 5% CO2 overnight and after the infection, experimental wells were washed with PBS to eliminate non-penetrated TCT. […] Then, 50 μL of a CPRG solution in 3% Triton X-100 (pH 7.4) were added to each well in a final concentration of 400 μM and the plates incubated 3 h at 37 °C. Finally, anti-amastigote activity was estimated by reading absorbance at 595 nm in a plate reader (Infinite 200, Tecan) and calculated as in Fonseca-Berzal et al.. IC50 and NI indexes were calculated as above.

[5] = chronic cases of Chagas disease
[6] = Trypanosoma cruzi, 72 h, epimastigotes

Compound	average cure rate (Chagas disease; acute cases of Chagas disease) [%]	mild to moderate dermatitis (Chagas disease; adults)	average cure rate (Chagas disease; [5])	CC50 at 72 h (in vitro) [µM]	JEM Strain SI (Selectivity Index: LC50-macrophages/IC50-epimastigotes) [1]	IC50 ([1]; Trypanosoma cruzi, 72 h) [µM]	JEM Strain PNFX (potency relative to NFX = IC50-NFX/IC50-compound; also called NI) [1]	MG Strain SI (Selectivity Index: LC50-macrophages/IC50-epimastigotes) [2]	IC50 [2, 6] [µM]	MG Strain PNFX (potency relative to NFX = IC50-NFX/IC50-compound; also called NI) ([2]; epimastigotes)	IC50 [1] [µM]	IC50 ([2]; epimastigotes) [µM]	times greater activity on the MG strain than the JEM strain ([2]; epimastigotes, MG vs JEM IC50)	times less toxic than NFX (J774.2 macrophages)	IC50 [3] [µM]	IC50 [4] [nM]
O=C(Cn1ccnc1[N+](=O)[O-])NCc1ccccc1 [Bz, benznidazole]	~80	up to 30%	less than 20%	–	–	–	–	–	–	–	–	–	–	–	–	–
CCCCCCCCCCC(N)CO (stereo not drawn) [Compound 1]	–	–	–	14 ± 0.9	0.4	33 ± 1.7	0.4	1.0	14.5 ± 3.15	1.5	–	–	–	–	–	–
CCCCCCCCCCCCCCCCC(N)CO (stereo not drawn) [Compound 3]	–	–	–	3 ± 0.24	0.3	9.9 ± 1.65	1.5	0.1	46.2 ± 2.5	0.5	–	–	–	–	–	–
CCCCCCCCCCC(CO)NCCCCCC (stereo not drawn) [Compound 4]	–	–	–	36.1 ± 2.3	1.0	37.2 ± 1.25	0.4	1.7	21.1 ± 1.25	1.0	–	–	–	–	–	–
CCCCCCCCCCCCCCC(CO)NCCCCCC (stereo not drawn) [Compound 7]	–	–	–	8.2 ± 1.55	–	> 70	–	1.3	6	3.5	> 70	6.1 ± 0.15	11	–	–	–
CCCCCCCCCCCCCCCCC(CO)NCCCCCC (stereo not drawn) [Compound 8]	–	–	–	26 ± 0.2	–	> 70	–	–	> 70	–	–	–	–	–	–	–
CCCCCCCCCCC(CO)N(CCCC)CCCC (stereo not drawn) [Compound 9]	–	–	–	63.7 ± 0.73	1.3	50.5 ± 0.7	0.3	1.6	39.2 ± 0.2	0.5	–	–	–	1.3	–	–
CCCCCCCCCCCCCCC(CO)N(CC)CC (stereo not drawn) [Compound 10]	–	–	–	5.6 ± 0.27	–	> 70	–	–	> 70	–	–	–	–	–	–	–
CCCCCCCCCCCCCCCCC(CO)N(CCCC)CCCC (stereo not drawn) [Compound 11]	–	–	–	–	–	50.3 ± 0.1	0.3	–	> 70	–	–	–	–	–	–	–
CCCCCCCCCCCCCCC(N)COCc1ccccc1 (stereo not drawn) [Compound 12]	–	–	–	27.7 ± 0.1	1.0	28.8 ± 1.2	0.5	0.8	34.4 ± 1.8	0.6	–	–	–	–	–	–
CCCCCCCCCCCCCCC(COCc1ccccc1)NCCCC (stereo not drawn) [Compound 13]	–	–	–	–	–	> 70	–	–	> 70	–	–	–	–	–	–	–
CCCCCCCCCCCCCCCCC(CN)NC(=O)OC(C)(C)C (stereo not drawn) [Compound 16]	–	–	–	24.1 ± 0.2	3.6	6.7 ± 2.1	2.2	1.7	13.9 ± 1	1.5	–	–	–	–	–	–
CCCCCCCCCCCCCCC(CNCCCCCC)NC(=O)OC(C)(C)C (stereo not drawn) [Compound 17]	–	–	–	4.2 ± 0.05	0.1	30.6 ± 0.65	0.5	0.2	26.7 ± 0.25	0.8	–	–	–	–	–	–
CCCCCCCCCCCCCCC(CN(CCCCCC)CCCCCC)NC(=O)OC(C)(C)C (stereo not drawn) [Compound 18]	–	–	–	–	–	> 70	–	–	> 70	–	> 70	> 70	–	–	–	–
CCCCCCCCCCCCCCC(N)CN (stereo not drawn) [Compound 19]	–	–	–	78.1 ± 0.85	2.9	26.6 ± 0.7	0.6	4.1	19.2 ± 2.9	1.1	–	–	–	–	–	–
CCCCCCCCCCCCCCC(N)CNCCCCCC (stereo not drawn) [Compound 20]	–	–	–	5 ± 0.1	0.1	> 70	0.3	0.2	42.2	0.6	48.8 ± 1.05	32.9 ± 1.25	–	–	–	–
CCCCCCCCCCCCCCCCC(N)CN(CC)CC (stereo not drawn) [Compound 21]	–	–	–	9.3 ± 0.5	–	> 70	–	0.2	42.2 ± 1.4	0.5	–	–	–	–	–	–
CC1CS(=O)(=O)CCN1/N=C/c1ccc([N+](=O)[O-])o1 (stereo not drawn) [NFX, nifurtimox, reference compound]	–	–	less than 20%	–	–	14.8 ± 1.24	–	–	21.2 ± 1.16	–	–	–	–	–	10.4 ± 1.3	600 ± 10
